Results published in US9458101B2 (priority 2009, dated 2016).

Key:
[1] = Dissolution of drug for cytotoxicity testing; assay type: physicochemical; set-up: key: X*: Did not dissolve at normal pH; details: footnote of Table 3
Experimental: Drug solutions were prepared by dissolving it into 4.5% dimethylsulfoxide and diluting with distilled water to a final concentration of 1 mM. A series of dilutions were prepared and a wavelength scan of the diluted solution was used to determine the wavelength of maximum absorbance for each compound. Five standardized drug concentrations were scanned at this pre-determined wavelength to obtain an estimate of the compound's extinction coefficient.

[2] = tested on: CCRF-CEM (Human T-lymphoblastoids from ALL); experiment: cells; assay type: cell-based; details: 72 hours, precision +/−0.5 or better
Source text: (§1) A full factorial experimental design was used, for a total of 28 cases.
(§2) For each (cell line, compound) pair, the following conditions were used, with each condition being assigned to a lane on a microtiter plate: • a. Seven or eight concentration levels between 1×10^−10 M and 1×10^−3 M. • b. A control with cells and media only. • c. A control with cells, media and DMSO only. The DMSO was at a concentration approximately equal to that used in the highest drug concentration level.
(§3) Additionally, 6-8 replicates (wells) of each condition were done on the plate. Drug solutions were prepared by dissolving the solid compounds in DMSO and then diluting in water. An approximately equal number of cells were introduced into each well of the plate and cells were incubated for 72 hours. An MTS assay was performed and absorbance values were measured with a spectrophotometer. Finally, a log IC50 parameter was calculated by fitting a 4-parameter logistic model to the data using an implementation of the Levenberg-Marquardt algorithm.

[3] = tested on: NCI-H226 (Human lung squamous cell carcinoma); experiment: cells; assay type: cell-based; details: NCI-H226, 72 hours, precision +/−0.5 or better
Source text: as §1, §2, §3

[4] = tested on: A549 (Human lung adenocarcinoma); experiment: cells; assay type: cell-based; details: A549, 72 hours, precision +/−0.5 or better
Source text: as §1, §2, §3

[5] = tested on: MCF-7 (Human mammary gland adenocarcinoma); experiment: cells; assay type: cell-based; details: MCF7, MCF-7, 72 hours, precision +/−0.5 or better
Source text: as §1, §2, §3

CEM cells = assay type: cell-based, Human

Compound	dissolution at normal pH [1]	IC50 [2]	IC50 [3]	IC50 [4]	IC50 [5]	fold lower IC50 than IC50 of (39) (CEM cells)
COc1cc2c(c(OCc3ccccc3Cl)c1OC)-c1ccc(OC)c(=O)cc1[C@@H](NC(C)=O)CC2 [Compound 14, N-[(7S)-2,3,10-trimethoxy-9-oxo-1-((phenyl(2-chloro))methoxy)-5,6,7,9-tetrahydrobenzo[α]heptalen-7-yl]acetamide]	X*	–	–	–	–	–
COc1cc2c(c(OC)c1OC)-c1ccc(OC)c(=O)cc1[C@@H](NC(=O)CNC(=O)C(F)(F)F)CC2 [Compound 28a]	–	39.8 nM	316 nM	631 nM	–	–
COc1cc2c(c(OC)c1OC)-c1ccc(SC)c(=O)cc1[C@@H](NC(=O)CNC(=O)C(F)(F)F)CC2 [Compound 47a]	–	6.31 nM	50.1 nM	63.1 nM	126000 nM	–
CCOc1cc2c(c(OC)c1OC)-c1ccc(SC)c(=O)cc1[C@@H](N(C(C)=O)C(=O)CNC(=O)C(F)(F)F)CC2 [Compound 49, N-[(7S)-3-ethoxy-1,2-dimethoxy-10-methylsulfanyl-9-oxo-5,6,7,9-tetrahydrobenzo[α]heptalen-7-yl]-N-[(trifluoroacetyl)glycyl]acetamide]	–	–	–	–	–	about 8 fold
